The target of one assay is T1, α1b-AR (Homo sapiens, UniProt P35368).
T1 sequence (P35368 1-520): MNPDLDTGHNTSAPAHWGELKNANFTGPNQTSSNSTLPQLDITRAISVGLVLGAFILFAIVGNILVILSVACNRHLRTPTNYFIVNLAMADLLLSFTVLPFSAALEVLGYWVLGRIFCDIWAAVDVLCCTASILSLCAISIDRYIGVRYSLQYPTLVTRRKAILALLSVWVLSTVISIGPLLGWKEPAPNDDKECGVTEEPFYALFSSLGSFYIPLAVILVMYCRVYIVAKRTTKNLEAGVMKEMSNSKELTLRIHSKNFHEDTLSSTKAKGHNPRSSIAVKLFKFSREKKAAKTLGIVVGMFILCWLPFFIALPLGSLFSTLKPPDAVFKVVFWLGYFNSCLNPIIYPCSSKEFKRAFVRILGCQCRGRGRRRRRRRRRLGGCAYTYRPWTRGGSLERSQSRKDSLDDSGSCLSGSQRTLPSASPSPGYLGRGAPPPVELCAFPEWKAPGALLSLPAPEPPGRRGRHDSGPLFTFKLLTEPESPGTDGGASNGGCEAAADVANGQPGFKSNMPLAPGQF
In words: α1-Adrenergic receptor radio-ligand (125I-HEAT) binding assay, α1b subtype. Conditions: Receptor Binding, Ki α1b-AR, COS-7 cell membranes, 125I-HEAT.

For the next assay, the target named is T2, α1d-AR (Homo sapiens, UniProt P25100).
T2 construct: expressed in transfected cells; host or cells: COS-7
T2 sequence (P25100 1-572): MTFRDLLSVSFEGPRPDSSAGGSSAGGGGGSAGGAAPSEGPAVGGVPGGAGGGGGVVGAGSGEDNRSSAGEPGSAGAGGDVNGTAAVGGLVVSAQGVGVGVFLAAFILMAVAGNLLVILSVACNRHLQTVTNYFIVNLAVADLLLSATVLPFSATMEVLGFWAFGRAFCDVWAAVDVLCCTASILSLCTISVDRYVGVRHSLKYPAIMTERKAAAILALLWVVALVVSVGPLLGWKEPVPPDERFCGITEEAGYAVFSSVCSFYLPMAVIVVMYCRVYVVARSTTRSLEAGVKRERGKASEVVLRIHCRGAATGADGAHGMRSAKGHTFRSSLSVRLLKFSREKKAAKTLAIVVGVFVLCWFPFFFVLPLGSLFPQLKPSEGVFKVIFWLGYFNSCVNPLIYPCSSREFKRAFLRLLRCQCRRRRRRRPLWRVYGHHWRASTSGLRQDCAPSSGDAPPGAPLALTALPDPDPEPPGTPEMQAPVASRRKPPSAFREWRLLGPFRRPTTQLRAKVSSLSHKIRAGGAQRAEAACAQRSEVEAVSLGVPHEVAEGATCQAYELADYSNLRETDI
In words: α1-Adrenergic receptor radio-ligand (125I-HEAT) binding assay, α1d subtype. On the procedure: α1-Adrenergic Receptor Binding Assay: Preparation of COS Cell Membranes
Membranes were prepared from COS-7 cells that had been transfected with one of the three α1-AR subtypes by the following method. COS cells from ten 100 mm tissue culture plates were scraped into 5 mL TE (50 mM Tris-HCl, 5 mM EDTA, pH 7.4). The cell suspension was disrupted with a Brinkman Polytron, setting 8, for 10 sec. The disrupted cells were centrifuged at 1000×g for 10 min at 4° C. Supernatants were centrifuged at 34,500×g for 20 min at 4° C. The membrane pellets were suspended in 2 mL TNE (50 mM Tris-HCl, 5 mM EDTA, 150 mM NaCl, pH7.4). An aliquot of the membrane suspension was stored at −70° C. until use. The protein concentration was determined using the BioRad DC protein assay kit following membrane solubilization with Triton X-100.
Radio-Ligand Binding Assay
Triplicate determinations of radio-ligand binding in the presence of increasing: concentrations of testing compound were made. The reagents were added to 96-well polypropylene plate wells using the Biomek 1000 robot (Beckman Instruments). […] The plate was incubated at rt for 1 hr. The contents of the wells were filtered through a GF/C membrane Unifilter plate (Packard Instruments) using the Packard Filtermate cell harvester. The filter plates were dried in a vacuum oven for 30 min at 40° C. 25 μL Microscint 20 liquid scintillation fluid (Packard Instuments) was added to each well. The radioactive content was analyzed in the TopCount microplate scintillation counter (Packard Instruments).

[1] abbreviates: COS-7 cell membranes, 125I-HEAT, read-out: Receptor Binding, Ki α1d-AR.
Where [2] appears, read: Receptor Binding, Ki α1d-AR, COS-7 cell membranes, 125I-HEAT.

SMILES strings stand for the structures. Where two headings read alike, the source gives them in different places.

Turning to `COc1ccc(S(=O)(=O)N[C@H]2CC[C@@H](N3CCN(c4ccccc4OC(C)C)CC3)CC2)cc1OC` [Cpd 7, N-cis-{4-[4-(2-Isopropoxy-phenyl)-piperazin-1-yl]-cyclohexyl}-3,4-dimethoxy-benzenesulfonamide], the Ki (commonly the dissociation constant of the complex between target and ligand, obtained from inhibition or displacement) at α1b-AR amounted to 109 nM; at α1d-AR it was 1 nM.
In the same order, the values of `CC(C)Oc1ccccc1N1CCN([C@H]2CC[C@H](NS(=O)(=O)c3ccc(Cl)cc3F)CC2)CC1` [Cpd 52, 4-Chloro-2-fluoro-N-trans-{4-[4-(2-isopropoxy-phenyl)-piperazin-1-yl]-cyclohexyl}-benzenesulfonamide] are 243 nM and 19 nM.
Regarding `COc1ccc(Br)cc1S(=O)(=O)N[C@H]1CC[C@H](N2CCN(c3ccccc3OC(C)C)CC2)CC1` [Cpd 56, 5-Bromo-N-trans-{4-[4-(2-isopropoxy-phenyl)-piperazin-1-yl]-cyclohexyl}-2-methoxy-benzenesulfonamide], the Ki at α1b-AR stood at 131 nM; on α1d-AR (setting [1]) it was 38 nM.
`CC(C)Oc1ccccc1N1CCN([C@H]2CC[C@@H](NS(=O)(=O)c3cccc(C(F)(F)F)c3)CC2)CC1` [Cpd 16, N-cis-{4-[4-(2-Isopropoxy-phenyl)-piperazin-1-yl]-cyclohexyl}-3-trifluoromethyl-benzenesulfonamide] came in with a Ki on α1b-AR of 222 nM.
Regarding `CC(C)Oc1ccccc1N1CCN([C@H]2CC[C@@H](NS(=O)(=O)c3ccccc3C#N)CC2)CC1` [Cpd 27, 2-Cyano-N-cis-{4-[4-(2-isopropoxy-phenyl)-piperazin-1-yl]-cyclohexyl}-benzenesulfonamide], the Ki on α1b-AR amounted to 217 nM; on α1d-AR (setting [1]) it was 6.3 nM.
For the compound `COc1ccc(S(=O)(=O)N[C@H]2CC[C@H](N3CCN(c4ccccc4OC(C)C)CC3)CC2)cc1OC` [Cpd 35, N-trans-{4-[4-(2-Isopropoxy-phenyl)-piperazin-1-yl]-cyclohexyl}-3,4-dimethoxy-benzenesulfonamide], the inhibition constant (Ki) at α1b-AR came out at 126 nM; at α1d-AR, 24 nM.
The compound `CC(C)Oc1ccccc1N1CCN([C@H]2CC[C@@H](NS(=O)(=O)c3cccc(C(F)(F)F)c3)CC2)CC1` [Cpd 2, N-cis-{4-[4-(2-Isopropoxy-phenyl)-piperazin-1-yl]-cyclohexyl}-3-trifluoromethyl-benzenesulfonamide] displayed a Ki on α1b-AR of 276 nM.
As to `COc1ccc(OC)c(S(=O)(=O)N[C@H]2CC[C@@H](N3CCN(c4ccccc4OC(C)C)CC3)CC2)c1` [Cpd 8, N-cis-{4-[4-(2-Isopropoxy-phenyl)-piperazin-1-yl]-cyclohexyl}-2,5-dimethoxy-benzenesulfonamide], the inhibition constant (Ki) at α1b-AR is 167 nM; on α1d-AR (setting [2]) it was 9.6 nM.
Take `CC(C)Oc1ccccc1N1CCN([C@H]2CC[C@H](NS(=O)(=O)c3ccccc3C#N)CC2)CC1` [Cpd 55, 2-Cyano-N-trans-{4-[4-(2-isopropoxy-phenyl)-piperazin-1-yl]-cyclohexyl}-benzenesulfonamide]: the Ki on α1b-AR was determined as 31 nM; on α1d-AR (setting [1]), 3.2 nM.
In the case of `CC(C)Oc1ccccc1N1CCN([C@H]2CC[C@H](NS(=O)(=O)c3ccc(S(C)(=O)=O)cc3)CC2)CC1` [Cpd 34, N-trans-{4-[4-(2-Isopropoxy-phenyl)-piperazin-1-yl]-cyclohexyl}-4-methanesulfonyl-benzenesulfonamide], the Ki is 392 nM on α1b-AR and 22 nM at α1d-AR (setting [1]).
In the same order, the values of `CC(C)Oc1ccccc1N1CCN([C@H]2CC[C@H](NS(=O)(=O)c3cccc(Cl)c3F)CC2)CC1` [Cpd 51, 3-Chloro-2-fluoro-N-trans-{4-[4-(2-isopropoxy-phenyl)-piperazin-1-yl]-cyclohexyl}-benzenesulfonamide] are 348 nM and 24 nM.
On to `CC(C)Oc1ccccc1N1CCN([C@H]2CC[C@H](NS(=O)(=O)c3ccccc3F)CC2)CC1` [Cpd 49, 2-Fluoro-N-trans-{4-[4-(2-isopropoxy-phenyl)-piperazin-1-yl]-cyclohexyl}-benzenesulfonamide], for which the figures for the inhibitory constant (Ki) on α1b-AR and on α1d-AR (setting [2]) were 385 nM and 30 nM, respectively.
In the case of `CC(C)Oc1ccccc1N1CCN([C@H]2CC[C@@H](NS(=O)(=O)c3ccccc3F)CC2)CC1` [Cpd 21, 2-Fluoro-N-cis-{4-[4-(2-isopropoxy-phenyl)-piperazin-1-yl]-cyclohexyl}-benzenesulfonamide], the Ki on α1b-AR is 103 nM; on α1d-AR (setting [2]), 2.7 nM.
For `CC(C)Oc1ccccc1N1CCN([C@H]2CC[C@H](NS(=O)(=O)c3cccc(C(F)(F)F)c3)CC2)CC1` [Cpd 44, N-trans-{4-[4-(2-Isopropoxy-phenyl)-piperazin-1-yl]-cyclohexyl}-3-trifluoromethyl-benzenesulfonamide], the Ki on α1b-AR was 334 nM; at α1d-AR (setting [2]), 34.7 nM.
As for `COc1ccc(Br)cc1S(=O)(=O)N[C@H]1CC[C@@H](N2CCN(c3ccccc3OC(C)C)CC2)CC1` [Cpd 28, 5-Bromo-N-cis-{4-[4-(2-isopropoxy-phenyl)-piperazin-1-yl]-cyclohexyl}-2-methoxy-benzenesulfonamide], the Ki at α1b-AR was 42 nM; at α1d-AR (setting [1]), 0.8 nM.
In the case of `COc1ccc(OC)c(S(=O)(=O)N[C@H]2CC[C@H](N3CCN(c4ccccc4OC(C)C)CC3)CC2)c1` [Cpd 36, N-trans-{4-[4-(2-Isopropoxy-phenyl)-piperazin-1-yl]-cyclohexyl}-2,5-dimethoxy-benzenesulfonamide], the inhibition constant (Ki) turned out to be 424 nM at α1b-AR and 56 nM at α1d-AR (setting [2]).
Take `CC(C)Oc1ccccc1N1CCN([C@H]2CC[C@@H](NS(=O)(=O)c3ccc(Cl)cc3F)CC2)CC1` [Cpd 24, 4-Chloro-2-fluoro-N-cis-{4-[4-(2-isopropoxy-phenyl)-piperazin-1-yl]-cyclohexyl}-benzenesulfonamide]: the values for the Ki on α1b-AR and on α1d-AR were 101 nM and 1.5 nM, respectively.
Take `CC(C)Oc1ccccc1N1CCN([C@H]2CC[C@@H](NS(=O)(=O)c3ccc(S(C)(=O)=O)cc3)CC2)CC1` [Cpd 6, N-cis-{4-[4-(2-Isopropoxy-phenyl)-piperazin-1-yl]-cyclohexyl}-4-methanesulfonyl-benzenesulfonamide]: the Ki is 195 nM on α1b-AR and 3.4 nM at α1d-AR (setting [1]).
In the same order, the values of `CC(C)Oc1ccccc1N1CCN([C@H]2CC[C@@H](NS(=O)(=O)c3cccc(Cl)c3F)CC2)CC1` [Cpd 23, 3-Chloro-2-fluoro-N-cis-{4-[4-(2-isopropoxy-phenyl)-piperazin-1-yl]-cyclohexyl}-benzenesulfonamide] are 195 nM and 3 nM.
For `CC(C)Oc1ccccc1N1CCN([C@H]2CC[C@H](NS(=O)(=O)c3cccc(C(F)(F)F)c3)CC2)CC1` [Cpd 30, N-trans-{4-[4-(2-Isopropoxy-phenyl)-piperazin-1-yl]-cyclohexyl}-3-trifluoromethyl-benzenesulfonamide], the Ki on α1b-AR came to 204 nM; on α1d-AR (setting [2]), 49 nM.

The record behind these values is patent US20060173015A1, “Cyclohexyldiamines as selective alpha 1a/1d adrenoreceptor antagonists for the treatment of benign prostatic hypertrophy and lower urinary tract symptoms” (priority 2004, published 2006).
